Assay results reported in US20250032581A1, “COMPOSITIONS AND ARTICLES COMPRISING AN ADNF POLYPEPTIDE” (RAMOT AT TEL-AVIV UNIVERSITY LTD., priority 2021, published 2025).

Legend:
[1] = cited from earlier work
[2] = system: mice with the ASD-linked InsG3680 mutation (SHANK3); assay: Open field behavior in the SHANK3 mouse model; type: in vivo; details: intranasal NAP once daily, five days a week for a month
Experimental: (§1) To this end, mice with the ASD-linked InsG3680 mutation were used. Two behavioral assessments were performed on make mice: • 1) Open field behavior attesting to anxiety and depression (Open field behavioral assessment technology was previously described, e.g.); and • 2) Social recognition behavior, related to autistic traits (the social recognition test was previously described, e.g..
This surprising finding is of importance as there is a psychiatric illness and regression in individuals with Phelan-McDermid syndrome.

ADNP^+/− MOUSE = system: ADNP^+/− MOUSE; design: key: corrections by NAP treatment (+); details: Adnp+/− mouse (second symbol); cited from earlier work
Tyr-GFP mouse model = assay: Dendritic spine quantitation in Tyr-GFP mice; type: in vivo
Experimental: Spine quantitation—For determination of dendritic spine morphology, the Tyr-GFP mouse model was used and generated as described(12). 1.5-2-month-old Tyr-GFP-mice were treated for 9 consecutive days with either intraperitoneal NAP injection (0.4 μg/0.1 ml saline) or with 0.1 ml saline. On day 9, mice were perfused, and brains were subjected to immunohistochemistry and imaging (12).

Tyr mice [3] = assay: Fecal microbiome real-time PCR; type: in vivo, mouse; details: WT mice
Experimental: Microbiome—Fecal samples were collected from 12.2±0.19-week-old mice. Samples were prepared and analyzed as previously described (57). Microbiome data was analyzed after applying the logarithmic transformation.

[4] = system: Shank3-Adnp-actin interactions; assay: Actin co-immunoprecipitations from mouse brain extracts
Source text: De novo heterozygous mutations in ADNP reproduced the autistic ADNP syndrome. ADNP mutations impair microtubule (MT) function, essential for synaptic activity. The ADNP MT-associating fragment NAPVSIPQ (NAP) (SEQ ID NO 2) contains an MT end-binding protein interacting domain, SxIP (mimicking the active-peptide, SKIP, SEQ ID NO 21). The inventors hypothesized that not all ADNP mutations are similarly deleterious and that the NAPV portion of NAPVSIPQ is biologically active. Using the eukaryotic linear motif (ELM) resource, the inventors identified a Src homology 3 (SH3) domain-ligand association site in NAP responsible for controlling signaling pathways regulating the cytoskeleton, namely NAPVSIP (SEQ ID NO: 2). Altogether, the inventors mapped multiple SH3-binding sites in ADNP. […] Site-directed-mutagenesis, abolishing the p.Lys408Valfs*31 SH3-binding motif, produced MT toxicity. […] Lastly, SH3 and multiple ankyrin repeat domains protein 3 (SHANK3), a major autism gene product, interact with the cytoskeleton through an actin-binding motif to modify behavior.

Tyr mice [5] = assay: RNA seq of mouse spleens; type: in vivo
Experimental: RNA seq—Total RNA was extracted from 14-week-old mouse spleens and sequenced using standard methods on NextSeq500 system (Illumina) as detailed. Data were analyzed as previously described (9).

[6] = system: AT8 (hyperphosphorylated Tau); assay: AT8 immunohistochemistry (hyperphosphorylated Tau); type: in vivo, mouse; details: WT males, data not shown
Experimental: AT8 Immunohistochemistry—experiment was performed as previously described (100). Mice were treated for 6 weeks with daily intranasal DD/NAP and were euthanized at 10.21±0.05 weeks of age.

[7] = system: Tau-MT interaction in differentiated N1E-115 cells; assay: Fluorescence recovery after photobleaching (FRAP) of mCherry-Tau; type: cell-based, mouse; details: for Tau-MT interaction (immobile mCherry-Tau fraction): 4 hrs
Experimental: Cell culture—Mouse neuroblastoma NIE-115 cells were maintained in Dulbecco's modified Eagle's medium, 10% fetal bovine serum, 2 mM glutamine and 100 U ml-1 penicillin, 100 mg ml-1 streptomycin (Biological Industries, Beit Haemek, Israel). The cells were incubated in 9 5% air/5% CO2 in a humidified incubator at 37° C.
Cell differentiation and co-transfection of overexpression plasmids—Cultured NIE-115 cells were plated on 35 mm dishes (81156, 60 p-Dish, Ibidi, Martinsried, Germany) at a concentration of 1.25×10^4 cells per dish and then were differentiated with reduced fetal bovine serum (2%) and DMSO (1.25%) containing medium for 5 days before transfection. 48 hrs before experiments N1E-115 cells were co-transfected with 1 μg EB3-RFP or mCherry-Tau (3R) plasmid with or without 2 μg of plasmids, coding to GFP conjugated to full-length human ADNP, or ADNP carried mutations. 1:3 ratios between total amount of transfected DNA and transfection reagent were used according to manufacture guidance (Lipofectamine2000, Thermo Fisher Scientific, Waltham, MA, USA) in all subsequent experiments.
Fluorescence recovery after photobleaching (FRAP)—Differentiated NIE-115 cells were transfected with mCherry-Tau with or without GFP-conjugated to full-length ADNP or mutated ADNP, and imaged 48 hrs after transfection. An ROI for photobleaching was drowned in the proximal cell branches. mCherry-Tau was bleached with a […], and fluorescence recovery was collected within wavelengths of 610-650 nm. 80 images were taken every 0.74 sec immediately after bleaching. After FRAP imaging all samples were also treated with NAP in final concentrations of 10^−12M, and after 4 hrs time-lapse imaging was done again under the same conditions. FRAP imaging for assessment difference between NAP and SKIP (SEQ ID NO: 21) activity was performed after an hour of ZnCl2 treatment (400 μM final concentration; Sigma, Rehovot, Israel) with or without NAP/SKIP (10^−12M final concentration). Fluorescence signals were quantified with Fiji, obtained data were normalized with easyFRAP [82, 83] and FRAP recovery curves were fitted by a one-phase exponential association function by GraphPad Prism6 (GraphPad Software, Inc., La Jolla, CA, USA) while samples with R^2<0.9 were excluded.
Next, the effect of full-length/truncated ADNP forms with or without NAP treatment on Tau-MT interaction was examined by fluorescence recovery after photobleaching (FRAP) (FIGS. 8A-C). FRAP was performed with mCherry-tagged Tau protein (FIG. 8A). […] Therefore, the immobile mCherry-Tau fraction reflects the rate of Tau association with MTs.

[8] = system: mice with the ASD-linked InsG3680 mutation (SHANK3); assay: Social recognition test in the SHANK3 mouse model; type: in vivo; details: intranasal NAP
Experimental: as §1
In the social recognition test, the results measured both time exploring and frequency exploring the mouse or cup, either directly or in the chamber where the mouse or cup only are present (FIG. 13).

## CC[C@H](C)[C@H](NC(=O)[C@H](CO)NC(=O)[C@@H](NC(=O)[C@@H]1CCCN1C(=O)[C@H](C)NC(=O)[C@@H](N)CC(N)=O)C(C)C)C(=O)N1CCC[C@H]1C(=O)N[C@@H](CCC(N)=O)C(=O)O [NAP, NAPVSIPQ]
[1]
  bioavailability / cell penetration: bioavailable by endocytosis
[2]
  open field: cumulative duration in the center: significantly increased by NAP treatment
ADNP^+/− MOUSE
  NAP efficacy: visual evoked potential/axonal transport: +/+
Tyr-GFP mouse model; WT females, data not shown
  spine density, motor cortex: no treatment effect was found on WT females
Tyr-GFP mouse model; female Tyr mice
  PSD95 volume in the hippocampus: complete resolution upon NAP treatment
  mushroom spine density, motor cortex: NAP significantly affecting the larger, functionally stronger, mushroom shaped spines
Tyr-GFP mouse model; female Tyr mice, i.p. NAP, 9 days
  increase in spine density, motor cortex L5 layer: ~17%
Tyr mice [3]
  bacterial loads (EubV3, BIF, Lacto, Entero): no effect on WT mice
[4]
  Shank3-Adnp-actin interactions: NAP-mediated normalization of Shank3-Adnp-actin interactions
Tyr mice [5]
  spleen gene expression converging on AKT1, nervous and reproductive systems development: corrected by NAP
[6]
  AT8 positive cells: did not display a NAP effect
[7]; cells expressing ADNP p.Glu830synfs*83, NAP 10^−12M
  Tau-MT interaction (immobile mCherry-Tau fraction): significantly increased Tau-MT interaction
[7]; cells expressing ADNP p.Ser404*, NAP 10^−12M
  Tau-MT interaction (immobile mCherry-Tau fraction): significantly increased Tau-MT interaction
[7]; zinc 400 μM, 1 h, peptide 10^−12M
  Tau immobile fraction (Tau-MT interaction) in the presence of zinc: excessive impact of NAP on Tau-MT interaction
[8]
  social recognition: mouse vs. cup exploration: normalization of behavior in the NAP-treated SHANK3 mouse model
